From paper PMC10008561 (Nature Communications, 2023)
Values joined by “and” are separate entries in the source; they are usually repeats but may differ in a detail not shown here. Equal values may be shown once. Read-outs that look alike come from different tables or passages of the source.

Legend:
human KOR (β-arrestin 1) = target: T1, human KOR (β-arrestin 1) (Homo sapiens, UniProt P41145); experiment: cell-based; conditions: HEK-293T
T1 construct: expressed in transfected cells; host or cells: HEK293T

human KOR (GoA) = target: T2, human KOR (GoA) (Homo sapiens, UniProt P41145); experiment: cell-based; conditions: HEK-293T
T2 construct: expressed in transfected cells; host or cells: HEK293T

human KOR (Gz) = target: T3, human KOR (Gz) (Homo sapiens, UniProt P41145); experiment: cell-based; conditions: HEK-293T
T3 construct: expressed in transfected cells; host or cells: HEK293T

human KOR (Gustducin) [1] = target: T4, human KOR (Gustducin) (Homo sapiens, UniProt P41145); experiment: cell-based
T4 construct: expressed in transfected cells; host or cells: HEK293T

KOR Q115N [2] = target: T5, KOR Q115N (Homo sapiens, UniProt P41145, Q115N); experiment: cell-based; design: TEV cleavage site (C); tTA transcription factor (C); expressed in transfected cells; host or cells: HTLA cells; conditions: read-out: Tango response (Figure S4C), KOR Q115N, Log [Drug], replicate values
Target sequence in this assay (P41145 whole entry Q115N): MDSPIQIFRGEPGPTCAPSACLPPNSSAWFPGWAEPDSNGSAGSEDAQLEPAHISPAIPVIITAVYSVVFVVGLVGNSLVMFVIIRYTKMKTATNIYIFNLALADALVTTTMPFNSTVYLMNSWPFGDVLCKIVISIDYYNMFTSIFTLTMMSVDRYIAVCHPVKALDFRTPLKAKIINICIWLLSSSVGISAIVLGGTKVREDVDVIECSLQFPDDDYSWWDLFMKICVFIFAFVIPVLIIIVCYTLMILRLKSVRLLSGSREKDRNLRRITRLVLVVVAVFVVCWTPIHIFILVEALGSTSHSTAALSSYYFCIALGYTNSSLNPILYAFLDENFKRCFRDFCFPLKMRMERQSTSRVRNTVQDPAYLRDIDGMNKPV
Target sequence in this assay (P32121 whole entry partner): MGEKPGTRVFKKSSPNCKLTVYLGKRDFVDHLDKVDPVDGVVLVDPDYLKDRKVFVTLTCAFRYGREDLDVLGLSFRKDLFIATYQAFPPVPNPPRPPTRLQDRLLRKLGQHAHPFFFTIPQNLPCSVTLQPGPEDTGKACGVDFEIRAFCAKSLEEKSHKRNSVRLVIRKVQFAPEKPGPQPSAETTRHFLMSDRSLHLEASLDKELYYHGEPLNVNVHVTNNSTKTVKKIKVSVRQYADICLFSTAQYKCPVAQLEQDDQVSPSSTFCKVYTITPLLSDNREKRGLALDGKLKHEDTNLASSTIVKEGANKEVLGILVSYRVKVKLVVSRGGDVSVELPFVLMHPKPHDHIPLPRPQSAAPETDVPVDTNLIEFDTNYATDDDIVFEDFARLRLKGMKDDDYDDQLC

human KOR (GoB) = target: T6, human KOR (GoB) (Homo sapiens, UniProt P41145); experiment: cell-based; conditions: HEK-293T
T6 construct: expressed in transfected cells; host or cells: HEK293T

human KOR [3] = target: T7, human KOR (Homo sapiens, UniProt P41145); experiment: cell-based; design: expressed in transfected cells; host or cells: HEK 293T (ATCC, CRL-3216); conditions: HTLA
KOR Q115N [4] = target: T5, KOR Q115N; experiment: cell-based; design: expressed in transfected cells; host or cells: HEK 293T (ATCC, CRL-3216); conditions: read-out: cAMP response (Figure S4C), KOR Q115N, Log [Drug], replicate values
Target sequence in this assay (P41145 whole entry Q115N): as the sequence (P41145 whole entry Q115N) above

human KOR [5] = target: T7, human KOR; experiment: cell-based; design: expressed in transfected cells; host or cells: HEK 293T (ATCC, CRL-3216); conditions: HEK-293T
human KOR (Gi2) = target: T8, human KOR (Gi2) (Homo sapiens, UniProt P41145); experiment: cell-based; conditions: HEK-293T
T8 construct: expressed in transfected cells; host or cells: HEK293T

human KOR (β-arrestin 2) = target: T9, human KOR (β-arrestin 2) (Homo sapiens, UniProt P41145); experiment: cell-based; conditions: HEK-293T
T9 construct: expressed in transfected cells; host or cells: HEK293T

human KOR [6] = target: T7, human KOR; experiment: cell-based
human KOR [7] = target: T10, human KOR (Homo sapiens, UniProt P41145, Q115N); experiment: cell-based; conditions: HTLA
T10 construct: expressed in transfected cells; host or cells: HEK 293T (ATCC, CRL-3216)

human KOR [8] = target: T11, human KOR (Homo sapiens, UniProt P41145, W287A); experiment: cell-based; conditions: HTLA
T11 construct: expressed in transfected cells; host or cells: HEK 293T (ATCC, CRL-3216)

human KOR (Gi3) = target: T12, human KOR (Gi3) (Homo sapiens, UniProt P41145); experiment: cell-based; conditions: HEK-293T
T12 construct: expressed in transfected cells; host or cells: HEK293T

KOR [9] = type: cell-based, human
human KOR [10] = target: T7, human KOR; experiment: cell-based; remark: listed apart in the source
human KOR [11] = target: T10, human KOR; experiment: cell-based; conditions: HEK-293T
human KOR [12] = target: T11, human KOR; experiment: cell-based; conditions: HEK-293T
KOR [13] = experiment: Bias factor, Gz vs β-arrestin2 (BRET), U50,488 as reference; type: cell-based, human
human KOR (Gi1) = target: T13, human KOR (Gi1) (Homo sapiens, UniProt P41145); experiment: cell-based
T13 construct: expressed in transfected cells; host or cells: HEK293T

human KOR (Gustducin) [14] = conditions: cited from earlier work
[15] = read-out: βArrestin1 (Figure 5A concentration-response, replicate values)
[16] = read-out: Gz (Figure 5A concentration-response, replicate values)
[17] = read-out: Tango response (Figure S4C)
[18] = read-out: cAMP response (Figure S4C)

T3 sequence (P41145 whole entry): as the sequence (P41145 whole entry Q115N) above, with N115Q counted along it
T1 sequence (P41145 whole entry): as the sequence (P41145 whole entry Q115N) above, with N115Q counted along it
T7 sequence (P41145 whole entry): as the sequence (P41145 whole entry Q115N) above, with N115Q counted along it
T13 sequence (P41145 whole entry): as the sequence (P41145 whole entry Q115N) above, with N115Q counted along it
T4 sequence (P41145 whole entry): as the sequence (P41145 whole entry Q115N) above, with N115Q counted along it
T10 sequence (P41145 whole entry Q115N): as the sequence (P41145 whole entry Q115N) above
T11 sequence (P41145 whole entry W287A): as the sequence (P41145 whole entry Q115N) above, with N115Q, W287A counted along it
T2 sequence (P41145 whole entry): as the sequence (P41145 whole entry Q115N) above, with N115Q counted along it
T6 sequence (P41145 whole entry): as the sequence (P41145 whole entry Q115N) above, with N115Q counted along it
T9 sequence (P41145 whole entry): as the sequence (P41145 whole entry Q115N) above, with N115Q counted along it
T8 sequence (P41145 whole entry): as the sequence (P41145 whole entry Q115N) above, with N115Q counted along it
T12 sequence (P41145 whole entry): as the sequence (P41145 whole entry Q115N) above, with N115Q counted along it

COC(=O)N1CCN(C(=O)Cc2ccc(Cl)c(Cl)c2)C2C(N3CCCC3)CCCC21 (centres unmarked) [WMS-X600]
Emax (human KOR (β-arrestin 1)): 93.8% | activation at 0.01 µM (human KOR (β-arrestin 1); [15]): 33.5% | activation at 1 µM (human KOR (β-arrestin 1); [15]): 86.2% | activation at 10 µM (human KOR (β-arrestin 1); [15]): 91.8% | Emax (human KOR (GoA)): 99.8% | Emax (human KOR (Gz)): 97.7% | activation at 0.001 µM (human KOR (Gz); [16]): 86.2% | activation at 0.01 µM (human KOR (Gz); [16]): 100% | activation at 0.1 µM (human KOR (Gz); [16]): 101% | activation at 1 µM (human KOR (Gz); [16]): 95.2% | activation at 10 µM (human KOR (Gz); [16]): 97.8% | Emax% (human KOR (Gustducin) [1]): 94% | Emax (human KOR (Gustducin) [1]; HEK-293T): 93.6% | activation at 10 µM (KOR Q115N [2]; M -5): 120% | activation at […] (KOR Q115N [2]; M -5.5): 124% | activation at 1 µM (KOR Q115N [2]; M -6): 123% | activation at […] (KOR Q115N [2]; M -6.5): 107% | activation at 0.1 µM (KOR Q115N [2]; M -7): 112% | activation at 0.01 µM (KOR Q115N [2]; M -8): 116% | activation at […] (KOR Q115N [2]; M -9.5): 72.6% | activation at 0.0001 µM (KOR Q115N [2]; M -10): 78.7% | activation at 31.62 pM (KOR Q115N [2]; M -10.5): 43.5% | Emax (human KOR (GoB)): 99.2% | Emax (human KOR [3]): 96 ± 5% | activation at 0.001 µM (human KOR [3]; [17]): 78.7% | activation at 0.1 µM (human KOR [3]; [17]): 116% | activation at 1 µM (human KOR [3]; [17]): 112% | activation at 10 µM (human KOR [3]; [17]): 123% | activation at […] (human KOR [3]; [17]): 43.5% and 72.6% and 125% | activation at 1 µM (KOR Q115N [4]; M -6): 99.1% | activation at […] (KOR Q115N [4]; M -6.5): 107% | activation at 0.1 µM (KOR Q115N [4]; M -7): 105% | activation at […] (KOR Q115N [4]; M -7.5): 104% | activation at 0.01 µM (KOR Q115N [4]; M -8): 103% | activation at […] (KOR Q115N [4]; M -8.5): 100% | activation at 0.001 µM (KOR Q115N [4]; M -9): 97.8% | activation at […] (KOR Q115N [4]; M -9.5): 101% | activation at 0.0001 µM (KOR Q115N [4]; M -10): 92.8% | activation at 31.62 pM (KOR Q115N [4]; M -10.5): 81.3% | activation at 10 pM (KOR Q115N [4]; M -11): 56.3% | activation at 3.162 pM (KOR Q115N [4]; M -11.5): 33.3% | Emax (human KOR [5]): 95 ± 3% | activation at 31.62 pM (human KOR [5]; [18]): 34.2% | activation at 0.0001 µM (human KOR [5]; [18]): 56.7% | activation at 0.001 µM (human KOR [5]; [18]): 78.9% | activation at 0.01 µM (human KOR [5]; [18]): 101% | activation at 0.1 µM (human KOR [5]; [18]): 103% | activation at 1 µM (human KOR [5]; [18]): 91.1% | activation at […] (human KOR [5]; [18]): 68.9% and 97.5% and 102% and 90.6% | Emax (human KOR (Gi2)): 99.3% | Emax (human KOR (β-arrestin 2)): 102 ± 6% | increase of potency for arrestin signaling (human KOR [6]): 5 fold | loss of potency in arrestin recruitment (human KOR [6]): 232 fold | Emax (human KOR [7]): 110 ± 6% | Emax (human KOR [8]): 108 ± 7% | Emax (human KOR (Gi3)): 99.2% | ΔΔLog τ/KA (95% confidence interval) (KOR [9]): 1 (0.81-1.19) | increase of potency for G protein signaling (human KOR [10]): 10 fold | loss of potency in G protein activation (human KOR [10]): 82 fold | Emax (human KOR [11]): 103 ± 1% | Emax (human KOR [12]): 98 ± 5% | bias factor towards arrestin pathway (KOR [13]): 8.6 | Emax% (human KOR (Gi1)): 101.3% | Emax (human KOR (Gi1); HEK-293T): 84 ± 8%

dynorphin A 1–13
activity at Gustducin (human KOR (Gustducin) [14]): nearly inactive
